Converted amounts (≈) assume the structure as drawn. The source made the active and inactive calls. The calls are words filed in the database; no cut-off is given here.
How the values were obtained:
[1] = molecular target: Glycogen synthase kinase-3 beta (Homo sapiens) (UniProt P49841); assay: Inhibition of human recombinant GSK3-beta assessed as incorporation of [33P]gammaATP into G2S peptide at 25 uM
[2] = Selectivity ratio of LD50 for medaka fry to ED50 for medaka eggs; settings: oryzias latipes
[3] = Toxicity against medaka fry after 96 hrs; type: organism-based; settings: oryzias latipes, in vivo; read-out: LD50
[4] = Toxicity against medaka eggs assessed as eggs failing to hatch after 11 days; design: species or system Egg; settings: oryzias latipes, 264 h
[5] = molecular target: T1, Acetylcholinesterase (Bos taurus) (UniProt P23795); assay: Inhibition of bovine AChE
T1 sequence (whole entry): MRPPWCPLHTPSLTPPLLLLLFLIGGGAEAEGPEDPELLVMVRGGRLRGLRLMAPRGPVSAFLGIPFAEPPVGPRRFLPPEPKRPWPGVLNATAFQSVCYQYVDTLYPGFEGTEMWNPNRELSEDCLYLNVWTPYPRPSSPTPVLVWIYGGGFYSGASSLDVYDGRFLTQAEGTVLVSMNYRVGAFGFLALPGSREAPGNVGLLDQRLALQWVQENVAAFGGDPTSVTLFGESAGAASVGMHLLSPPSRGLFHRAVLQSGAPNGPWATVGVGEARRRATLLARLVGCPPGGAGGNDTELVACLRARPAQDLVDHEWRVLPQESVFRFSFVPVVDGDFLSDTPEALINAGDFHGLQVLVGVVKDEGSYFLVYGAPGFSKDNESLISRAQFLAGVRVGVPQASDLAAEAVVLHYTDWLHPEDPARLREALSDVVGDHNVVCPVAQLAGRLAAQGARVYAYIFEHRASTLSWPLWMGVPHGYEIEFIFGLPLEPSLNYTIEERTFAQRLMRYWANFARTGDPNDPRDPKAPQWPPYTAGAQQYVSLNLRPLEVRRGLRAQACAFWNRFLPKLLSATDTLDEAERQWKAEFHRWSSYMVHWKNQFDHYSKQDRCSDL

Plasmodium falciparum [6] = assay: Antimalarial activity after 72 hrs against chloroquine-sensitive Plasmodium falciparum D6 in erythrocytes by LDH reporter assay; type: functional, organism-based; settings: D6, 72 h
Leishmania donovani = assay: Antileishmanial activity against Leishmania donovani after 72 hrs by alamar blue assay; type: functional, organism-based
Cryptococcus neoformans = assay: Antifungal activity against Cryptococcus neoformans; type: functional, organism-based
Vero [7] = assay: Cytotoxicity against african green monkey Vero cells at 4.76 ug/mL by neutral red assay; type: cell-based; settings: chlorocebus sabaeus
Staphylococcus aureus [8] = assay: Antibacterial activity against methicillin-resistant Staphylococcus aureus; type: functional, organism-based
[9] = molecular target: Beta-secretase 1 (Homo sapiens) (UniProt P56817); assay: Inhibition of human recombinant BACE1 by FRET-based assay
Beta-secretase 1 (Homo sapiens), sequence (P56817 whole entry): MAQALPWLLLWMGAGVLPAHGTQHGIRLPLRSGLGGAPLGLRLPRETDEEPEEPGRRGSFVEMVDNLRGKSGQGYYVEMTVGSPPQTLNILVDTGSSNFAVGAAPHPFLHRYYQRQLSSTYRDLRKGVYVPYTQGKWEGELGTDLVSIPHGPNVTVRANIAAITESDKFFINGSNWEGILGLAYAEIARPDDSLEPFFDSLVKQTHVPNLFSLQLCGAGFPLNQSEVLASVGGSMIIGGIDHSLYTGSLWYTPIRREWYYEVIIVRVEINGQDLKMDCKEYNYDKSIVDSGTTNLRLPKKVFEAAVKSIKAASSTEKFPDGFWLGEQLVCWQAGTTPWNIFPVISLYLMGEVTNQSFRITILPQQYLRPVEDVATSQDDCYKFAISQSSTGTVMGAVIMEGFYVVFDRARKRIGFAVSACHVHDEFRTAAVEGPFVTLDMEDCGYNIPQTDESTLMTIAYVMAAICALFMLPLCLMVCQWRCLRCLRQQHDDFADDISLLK

Staphylococcus aureus [10] = assay: Antibacterial activity against Staphylococcus aureus; type: functional, organism-based
Plasmodium falciparum [11] = assay: Antimalarial activity after 72 hrs against chloroquine-resistant Plasmodium falciparum W2 in erythrocytes at […] by LDH reporter assay; type: functional, organism-based
[12] = test system: Mycobacterium intracellulare; assay: Antibacterial activity against Mycobacterium intracellular by alamar blue assay; type: functional, organism-based
[13] = test system: Mycobacterium tuberculosis; assay: Antituberculosis activity against Mycobacterium tuberculosis H37Rv at 64 ug/mL after 24 hrs by alamar blue assay; type: functional, organism-based
SH-SY5Y = assay: Cytotoxicity against human SH-SY5Y cells at 5 uM; type: cell-based
[14] = test system: Human immunodeficiency virus 1; assay: Antiviral activity against HIV1 3B assessed as reverse transcriptase activity by enzyme immunoassay; type: functional, organism-based; settings: Human immunodeficiency virus 1, 3B
[15] = molecular target: Glycogen synthase kinase-3 beta (Homo sapiens) (UniProt P49841); assay: Inhibition of GSK3-beta in human SH-SY5Y cells assessed as inhibition of tau phosphorylation at Ser396 at 5 uM after 24 hrs by ELISA sandwich method; type: cell-based
Vero [16] = assay: Cytotoxicity against african green monkey Vero cells by neutral red assay; type: cell-based; settings: chlorocebus sabaeus
[17] = test system: Mycobacterium tuberculosis; assay: Antituberculosis activity against Mycobacterium tuberculosis H37Rv after 24 hrs by alamar blue assay; type: functional
Plasmodium falciparum [18] = assay: Antimalarial activity after 72 hrs against chloroquine-resistant Plasmodium falciparum W2 in erythrocytes by LDH reporter assay; type: functional, organism-based; settings: W2, 72 h
[19] = test system: Voltage-gated calcium channel; assay: Blocking of calcium channel in human SH-SY5Y cells assessed as inhibition of KCL depolarization-induced cytosolic calcium increase at 1 uM; type: cell-based
[20] = Toxicity against medaka eggs assessed as eggs failing to hatch up to 10.6 uM after 11 days relative to control; design: species or system Egg; settings: oryzias latipes, 264 h

Glycogen synthase kinase-3 beta (Homo sapiens), sequence (P49841 whole entry, looked up): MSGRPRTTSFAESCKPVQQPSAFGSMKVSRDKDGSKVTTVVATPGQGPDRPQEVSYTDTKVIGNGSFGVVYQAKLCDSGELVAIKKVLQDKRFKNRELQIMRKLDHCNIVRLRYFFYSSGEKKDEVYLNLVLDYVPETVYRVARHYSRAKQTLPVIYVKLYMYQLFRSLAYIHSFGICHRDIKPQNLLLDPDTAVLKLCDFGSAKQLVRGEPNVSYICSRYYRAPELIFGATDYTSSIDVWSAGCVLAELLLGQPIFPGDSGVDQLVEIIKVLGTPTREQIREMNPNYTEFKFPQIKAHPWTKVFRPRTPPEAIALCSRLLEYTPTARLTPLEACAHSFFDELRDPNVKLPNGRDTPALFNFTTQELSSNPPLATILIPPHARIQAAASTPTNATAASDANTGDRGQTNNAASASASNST

## O[C@@H]1CCCN2CC[C@@H]1O[C@@]13CC[C@@H](OC[C@]45CN6CCCC/C=C\CC[C@](O)(C=C(c7nccc8c7[nH]c7ccccc78)[C@@H]4CC6)[C@H]25)[C@@H](O)CCN1[C@@H]1[C@]2(CN4CCCC/C=C\CC[C@]1(O)C=C(c1nccc5c1[nH]c1ccccc15)[C@@H]2CC4)C3 [NEO-KAULUAMINE]
[1]
  inhibition: 82%
[2]
  selectivity ratio: 3
[3]
  LC50 at 96 h: 820 nM
[4]
  ED50: 2450 nM

## C1=C(c2nccc3c2[nH]c2ccccc23)[C@@H]2CCN3CCCC/C=C\CC[C@]14O[C@@]15/C=C\CCCCN1[C@@H]4[C@]2(C3)C5 [12,34-OXAMANZAMINE A]
[5]
  Activity: inactive
Plasmodium falciparum [6]
  IC50: 4.76 µg/mL (≈ 8.71 µM)
Leishmania donovani
  IC50: 14 µg/mL (≈ 25.6 µM)
  IC90: 40 µg/mL (≈ 73.2 µM)
Cryptococcus neoformans
  Activity: inactive
Vero [7]
  Activity: Non-toxic
Staphylococcus aureus [8]
  Activity: inactive
[9]
  Activity: inactive
Staphylococcus aureus [10]
  Activity: inactive
Plasmodium falciparum [11]
  Activity: inactive
[12]
  Activity: inactive
[13]
  Activity: inactive

## O[C@]12C=C(c3nccc4c3[nH]c3ccccc34)[C@@H]3CCN(CCCC/C=C\CC1)C[C@@]31C[C@@H]3/C=C\CCCCN3[C@H]12 [MANZAMINE A]
SH-SY5Y
  Activity: Non-toxic
[14]
  IC50: 4.2 µg/mL (≈ 7.65 µM)
[5]
  Activity: inactive
Plasmodium falciparum [6]
  IC50: 0.0045 µg/mL (≈ 0.0082 µM)
Leishmania donovani
  IC50: 0.9 µg/mL (≈ 1.64 µM)
  IC90: 1.8 µg/mL (≈ 3.28 µM)
[15]
  Activity: Active
Cryptococcus neoformans
  IC50: 3 µg/mL (≈ 5.47 µM)
Staphylococcus aureus [8]
  IC50: 0.7 µg/mL (≈ 1.28 µM)
[1]
  inhibition: 73.2%
Vero [16]
  IC50: 1.2 µg/mL (≈ 2.19 µM)
[17]
  MIC: 1.5 µg/mL (≈ 2.73 µM)
Plasmodium falciparum [18]
  IC50: 0.008 µg/mL (≈ 0.0146 µM)
[2]
  selectivity ratio: 2.3
[9]
  Activity: inactive
Staphylococcus aureus [10]
  IC50: 0.5 µg/mL (≈ 0.911 µM)
[19]
  inhibition (INH): 20%
[3]
  LC50 at 96 h: 74 nM
[4]
  ED50: 170 nM
[12]
  IC50: 0.35 µg/mL (≈ 0.638 µM)

## CCN(CC)CCCC(C)Nc1ccnc2cc(Cl)ccc12 (configuration not stated) [CHLOROQUINE]
[20]
  Activity: Not Active

— ChEMBL document CHEMBL1142603, “Manzamine B and E and ircinal A related alkaloids from an Indonesian Acanthostrongylophora sponge and their activity against infectious, tropical parasitic, and Alzheimer's diseases” (J Nat Prod, 2006)
